Experiments:
[1] = Preclinical infusion system assembly (rats) compatibility; assay type: physicochemical; settings: 0.2 mg/mL (Test #1)
Experimental: The compatibility of the following brincidofovir formulations with an infusion system assembly for dosing of rats (consisting of a syringe, tether, catheter and syringe pump) was tested
a.) 0.2 mg/mL brincidofovir, 4 mM sodium phosphate, pH˜8.0, approx. 4.90% dextrose; b.) 1.5 mg/mL brincidofovir, 30 mM sodium phosphate, pH-8.0, approx. 4.25% dextrose.
Both solutions were prepared via dilution of the developed brincidofovir formulation (10 mg/mL brincidofovir, 200 mM sodium phosphate, pH=8.0) with a 5% dextrose solution. The testing procedure can be summarized as follows: • 1. The appearance, pH, and c(BCV) of the bulk testing solutions (0.2 mg/mL BCV, 4 mM sodium phosphate, pH-8.0, approx. 4.90% dextrose, and 1.5 mg/mL BCV, 30 mM sodium phosphate, pH˜8.0, approx. 4.25% dextrose were assessed pre-contact. • 2. Approximately 5 mL of the testing solution was drawn into a syringe which was then connected to the assembled infusion system (Vascular Access Harness (VAH) tether kit, the VAH port for rat jacket, and catheter). • 3. The infusion system was manually filled with the testing solution. Approximately 200 μL of the testing solution were pushed out of the infusion system and collected as an end-of-line sample (to) for the assessments of appearance and c(BCV). • 4. The syringe of the testing infusion system was mounted onto the syringe pump, and a flow rate was set to a flow of 1.2 mL/h ([…]) for a total dispensing volume of 2.4 mL (120 min). • 5. The entire flow-through was collected over the course of the experiment. At the respective time points (t10min, t105 min), end-of-line samples (approx. 200 μL) were collected for analysis. • 6. The pH of the bulk flow-through was measured at the end of the experiment (t120 min), since the volume of samples acquired from previous time points (200 μL) was too small for a standard pH measurement.

[2] = IV BCV single ascending dose study in healthy subjects: safety; assay type: in vivo, human
Experimental: Plasma PK samples were collected over 7 days and assayed by HPLC-MS. Plasma BCV PK parameters were determined by non-compartmental analysis and dose proportionality was assessed. Safety assessments were collected over 14 days.

[3] = Cohort 1, BCV 10 mg 2 h infusion, n = 6
[4] = Cohort 2, BCV 25 mg 2 h infusion, n = 6
[5] = Cohort 3, BCV 50 mg 2 h infusion, n = 9
[6] = Cohort 4, BCV 50 mg 4 h infusion, n = 9

Structure (SMILES): CCCCCCCCCCCCCCCCOCCCOP(=O)(O)CO[C@H](CO)Cn1ccc(N)nc1=O [Brincidofovir]
- Appearance ([1]; pre contact (bulk solution)): Clear, colorless
- Measured pH ([1]; pre contact (bulk solution)): 8.0
- Observed c(BCV) ([1]; pre contact (bulk solution)): 0.21 mg/mL
- Appearance ([1]; t0): Clear, colorless
- Observed c(BCV) ([1]; t0): 0.19 mg/mL
- Appearance ([1]; t10 min): Clear, colorless
- Observed c(BCV) ([1]; t10 min): 0.16 mg/mL
- Appearance ([1]; t105 min): Clear, colorless
- Observed c(BCV) ([1]; t105 min): 0.20 mg/mL
- Appearance ([1]; t120 min (bulk solution)): Clear, colorless
- Measured pH ([1]; t120 min (bulk solution)): 8.0
- Drug-Related AEs: Decreased appetite (number of subjects) [2, 3]: 0
- Drug-Related AEs: Diarrhea (number of subjects) [2, 3]: 0
- Drug-Related AEs: Elevated liver transaminases (number of subjects) [2, 3]: 0
- Drug-Related AEs: Headache (number of subjects) [2, 3]: 0
- Drug-Related AEs: Nausea (number of subjects) [2, 3]: 0
- Drug-Related AEs: Pain, phlebitis at infusion site (number of subjects) [2, 3]: 0
- Grade 3 or 4 Drug-Related AEs: Decreased appetite (number of subjects) [2, 3]: 0
- Grade 3 or 4 Drug-Related AEs: Diarrhea (number of subjects) [2, 3]: 0
- Grade 3 or 4 Drug-Related AEs: Elevated liver transaminases (number of subjects) [2, 3]: 0
- Grade 3 or 4 Drug-Related AEs: Headache (number of subjects) [2, 3]: 0
- Grade 3 or 4 Drug-Related AEs: Nausea (number of subjects) [2, 3]: 0
- Grade 3 or 4 Drug-Related AEs: Pain, phlebitis at infusion site (number of subjects) [2, 3]: 0
- Drug-Related AEs: Decreased appetite (number of subjects) [2, 4]: 0
- Drug-Related AEs: Diarrhea (number of subjects) [2, 4]: 0
- Drug-Related AEs: Elevated liver transaminases (number of subjects) [2, 4]: 0
- Drug-Related AEs: Headache (number of subjects) [2, 4]: 0
- Drug-Related AEs: Nausea (number of subjects) [2, 4]: 0
- Drug-Related AEs: Pain, phlebitis at infusion site (number of subjects) [2, 4]: 0
- Grade 3 or 4 Drug-Related AEs: Decreased appetite (number of subjects) [2, 4]: 0
- Grade 3 or 4 Drug-Related AEs: Diarrhea (number of subjects) [2, 4]: 0
- Grade 3 or 4 Drug-Related AEs: Elevated liver transaminases (number of subjects) [2, 4]: 0
- Grade 3 or 4 Drug-Related AEs: Headache (number of subjects) [2, 4]: 0
- Grade 3 or 4 Drug-Related AEs: Nausea (number of subjects) [2, 4]: 0
- Grade 3 or 4 Drug-Related AEs: Pain, phlebitis at infusion site (number of subjects) [2, 4]: 0
- Drug-Related AEs: Decreased appetite (number of subjects) [2, 5]: 0
- Drug-Related AEs: Diarrhea (% of subjects) [2, 5]: (11%)
- Drug-Related AEs: Diarrhea (number of subjects) [2, 5]: 1
- Drug-Related AEs: Elevated liver transaminases (number of subjects) [2, 5]: 0
- Drug-Related AEs: Headache (% of subjects) [2, 5]: (22%)
- Drug-Related AEs: Headache (number of subjects) [2, 5]: 2
- Drug-Related AEs: Nausea (number of subjects) [2, 5]: 0
- Drug-Related AEs: Pain, phlebitis at infusion site (% of subjects) [2, 5]: (11%)
- Drug-Related AEs: Pain, phlebitis at infusion site (number of subjects) [2, 5]: 1
- Grade 3 or 4 Drug-Related AEs: Decreased appetite (number of subjects) [2, 5]: 0
- Grade 3 or 4 Drug-Related AEs: Diarrhea (number of subjects) [2, 5]: 0
- Grade 3 or 4 Drug-Related AEs: Elevated liver transaminases (number of subjects) [2, 5]: 0
- Grade 3 or 4 Drug-Related AEs: Headache (number of subjects) [2, 5]: 0
- Grade 3 or 4 Drug-Related AEs: Nausea (number of subjects) [2, 5]: 0
- Grade 3 or 4 Drug-Related AEs: Pain, phlebitis at infusion site (number of subjects) [2, 5]: 0
- Drug-Related AEs: Decreased appetite (% of subjects) [2, 6]: (11%)
- Drug-Related AEs: Decreased appetite (number of subjects) [2, 6]: 1
- Drug-Related AEs: Diarrhea (% of subjects) [2, 6]: (33%)
- Drug-Related AEs: Diarrhea (number of subjects) [2, 6]: 3
- Drug-Related AEs: Elevated liver transaminases (% of subjects) [2, 6]: (11%)
- Drug-Related AEs: Elevated liver transaminases (number of subjects) [2, 6]: 1
- Drug-Related AEs: Headache (% of subjects) [2, 6]: (22%)
- Drug-Related AEs: Headache (number of subjects) [2, 6]: 2
- Drug-Related AEs: Nausea (% of subjects) [2, 6]: (22%)
- Drug-Related AEs: Nausea (number of subjects) [2, 6]: 2
- Drug-Related AEs: Pain, phlebitis at infusion site (number of subjects) [2, 6]: 0
- Grade 3 or 4 Drug-Related AEs: Decreased appetite (number of subjects) [2, 6]: 0
- Grade 3 or 4 Drug-Related AEs: Diarrhea (number of subjects) [2, 6]: 0
- Grade 3 or 4 Drug-Related AEs: Elevated liver transaminases (% of subjects) [2, 6]: (11%)
- Grade 3 or 4 Drug-Related AEs: Elevated liver transaminases (number of subjects) [2, 6]: 1
- Grade 3 or 4 Drug-Related AEs: Headache (number of subjects) [2, 6]: 0
- Grade 3 or 4 Drug-Related AEs: Nausea (number of subjects) [2, 6]: 0
- Grade 3 or 4 Drug-Related AEs: Pain, phlebitis at infusion site (number of subjects) [2, 6]: 0
- Adverse events ([2]; IV 10 mg and 25 mg): No drug related adverse events
- Safety and tolerability ([2]; IV 10 mg and 25 mg): generally safe and well-tolerated
- Bilirubin ([2]; any cohort): No Grade 2 or higher bilirubin
- ALT elevations ([2]; cohort 4): transient grade 2-3 ALT elevations
- Serious adverse events ([2]; human, in vivo): no serious adverse events occurred
- Tolerability ([2]; single doses 10-50 mg, 2h IV infusion): well tolerated
- ALT elevations ([2]; therapeutic IV exposures (cohorts 1 and 2)): no grade 2 or higher ALT elevations were observed

From patent US20170368082A1, “FORMULATIONS OF BRINCIDOFOVIR” (priority 2016, published 2017)
